This is an account of results in US20080045594A1, “Use of at Least One Conjugated Triene-Containing Fatty Acid for Preparing a Medicine for Treating Inflammation” (LABORATOIRES EXPANSCIENCE, priority 2004, published 2008).

The assay concerns Normal human adipocytes. The assay can be described thus: lipid synthesis in suspended adipocytes (incorporation of radio-labelled acetate). In kind it is cell-based. The settings on record: 10 μM; reference molecule, inhibitor of FAS. As to the method: Normal human adipocytes were isolated from abdominal biopsies (plastic surgery). Immediately after receipt, the samples were incubated for 30 min at 37° C. in the presence of collagenase (Sigma). The suspension of adipocytes is then rinsed and diluted 3 times in the culture medium.
Culture medium: bicarbonate (Life Technologies) 1.87 mg/ml, penicillin/streptomycin (Life Technologies) 25 IU/ml/25 μg/ml, glutamine (Life Technologies) 2 mM, MEM (Merck Eurolab) 100% v/v, albumin of bovine origin (Sigma) 0.5% w/v.
The suspended adipocytes are incubated for 1 h at 37° C. in the presence of different concentrations of MA105 (20 and 2 ppm) diluted in THF (tetrahydrofurane). A […] volume of radio-labelled acetate (2-C^14, 60.87 μCi/ml, Amersham) is then added to the preparation. After 4 hrs of incubation, the lipids are extracted according to the procedure described by Bligh and Dyer (methanol/chloroform/water), evaporated under nitrogen and the incorporated radioactivity was quantitated by liquid scintillation (LKB 1210 Rackbeta).

With `C/C=C/C/C=C/CCC(=O)[C@H]1O[C@H]1C(N)=O` [ceruline], the “inhibition of the incorporation of acetate” value is on record as 75 % inhibition/control.
